From patent US9814663B2, “Peptide, method and composition for inhibiting melanogenesis” (RENORIGIN INNOVATION INSTITUTE CO., LTD., priority 2016, dated 2017)

Key:
Format in all cases: cell-based, murine
Tyrosinase [1] = experiment: DOPA staining; settings: B16F10 cells, 10 and 50 μg/ml peptide, 4 days
Experimental: (§1) B16F10 murine melanoma cells were cultured in phenol red-free DMEM with 10% fetal bovine serum and penicillin/streptomycin (100 IU/50 […]) in a humidified atmosphere containing 5% CO2 in air at 37° C.
DOPA staining was also performed to measure tyrosinase enzyme activity. B16F10 cells were seeded in 6-well plate (2×10^4 cells/well) and incubated overnight to allow cells to adhere. After treating with various test samples in an incubator for 4 days, cells were washed with PBS, fixation with 2% paraformaldehyde and washing with PBS a further three times, the cells were incubated with 0.1% DOPA (dissolved in 0.1 M PBS) at 37° C. for 5 hour, and observed using light microscopy (Wang et al., Exp Ther Med 6, 967-972, 2013).

B16F10 melanoma cells = experiment: Cell pigmentation of treated B16F10 cultures (FIG. 1); settings: 50 μg/ml peptide, 5 days
Experimental: B16F10 melanoma cells were treated with 10-50 μg/ml peptide of SEQ ID NO: 1 (“Lf H-392-399”) for 5 days with a medium change at day 3. The cells and medium were recovered in test tubes. Kojic acid is used as […] in the cellular study due to known inhibitory effects on tyrosinase activity. IBMX is used as positive control in the cellular study due to known elevator of cellular cAMP level, […].
as §1

B16F10 cells = experiment: Melanin content assay; settings: 10 and 50 μg/ml peptide, 5 days, p<0.05 compared to control
Experimental: as §1
Melanin contents of cultured B16F10 cells were measured according to the method (Lee et al., J Invest Dermatol 124, 405-411, 2005) with a slight modification. Briefly, B16F10 cells were seeded in 6-well plate (2×10^4 cells/well) and incubated overnight to allow cells to adhere. After treating with various test samples in an incubator for 5 days, washed, trypsinized and counted before pelleting. Melanin per cell was quantified after boiling in 1 M NaOH for 1 hour and melanin content in each sample was read from a calibration curve against synthetic eumelanin at 400 nm and converted to means±SE melanin pg/cell from 3 independent experiments.

Tyrosinase [2] = experiment: Tyrosinase assay (cell lysate, L-DOPA); settings: B16F10 cells, 10 and 50 μg/ml peptide, 5 days; p<0.05 compared to control
Experimental: as §1
Tyrosinase is the rate limiting enzyme in the melanogenic pathway. Its measurement provides a highly specific and sensitive indication of degree of induction of melanogenesis. Tyrosinase enzyme activity of cultured B16F10 cells were measured according to the method of (Bellei et al., J Biol Chem 285, 7288-7299, 2010) with a slight modification. Briefly, B16F10 cells were seeded in 6-well plate (2×10^4 cells/well) and incubated overnight to allow cells to adhere. After treating with various test samples in an incubator for 5 days, cells were washed with PBS and then harvested using trypsin. At the end point, the cells were solubilized with phosphate buffer (pH 6.8) containing 1% Triton X-100. The cells were then disrupted by freezing and thawing, and the lysates were clarified by centrifugation at 10,000×g for 10 min. After protein quantification and adjustment of protein concentrations with lysis buffer, 100 μl of each lysate (each containing the same amount of protein) were aliquoted into the wells of a 96-well plate, and 100 μl of 5 mM L-DOPA were then added to each well. The absorbance was measured spectrophotometrically at 475 nm following a 30-min incubation period at 37° C. […]

Question: “SSASTTED (listed as Homo sapiens) [Lf H-392-399]” was tested. Which DOPA staining (Tyrosinase [1]) did it give?
Answer: weaker DOPA staining

Question: And the cell pigmentation (B16F10 melanoma cells)?
Answer: reduced cell pigmentation

Question: And the “melanin synthesis (melanin content in cells and melanin secretion in culture medium)” value (B16F10 cells)?
Answer: significantly decreased melanin synthesis

Question: And the tyrosinase activity (Tyrosinase [2])?
Answer: significantly decreased tyrosinase activity
